From EP4755888A1 (ILAb Co., Ltd., priority 2023, dated 2025)

What follows are compounds tested against PD-1/PD-L1 (Homo sapiens, UniProt Q9NZQ7) (assay: TR-FRET PD-1/PD-L1 binding inhibition at the molecular level (free proteins)). Details: Tag1-PD-L1 and Tag2-PD-1 proteins, twelve concentrations from 200 nM, 2 hours at room temperature, read-out: FRET assay (IC50).
In short: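 HTRF read-out at 665/620 nm after 2 h at room temperature. Detection used anti-Tag1 Eu cryptate plus anti-Tag2 XL665 antibodies. Tagged PD-L1 and PD-1 proteins were pre-mixed with compound across twelve […] 1:2 dilutions starting at 200 nM.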

PD-1/PD-L1, sequence (Q9NZQ7 19-238 limits assumed): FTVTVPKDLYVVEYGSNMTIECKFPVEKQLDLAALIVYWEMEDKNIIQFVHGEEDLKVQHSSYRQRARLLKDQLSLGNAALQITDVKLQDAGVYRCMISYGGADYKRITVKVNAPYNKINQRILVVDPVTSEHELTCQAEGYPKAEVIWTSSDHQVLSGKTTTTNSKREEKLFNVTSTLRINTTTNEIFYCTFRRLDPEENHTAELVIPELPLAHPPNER

SMILES	IC50
Cc1c(NC(=O)c2cc3n(n2)CCCC3NCCO)cccc1-c1cccc(Nc2nc(C(F)F)nc3cc(CN4CC[C@@H](O)C4)cnc23)c1C (stereo partly drawn) [Compound 132, N-(3'-((2-(difluoromethyl)-7-(((R)-3-hydroxypyrrolidin-1-yl)methyl)pyrido[3,2-d]pyrimidin-4-yl)amino)-2,2'-dimethyl-[1,1'-biphenyl]-3-yl)-4-((2-hydroxyethyl)amino)-4,5,6,7-tetrahydropyrazolo[1,5-a]pyridine-2-carboxamide]	< 10 nM
Cc1c(NC(=O)c2cc3n(n2)CCCC3NC[C@@H]2CCC(=O)N2)cccc1-c1cccc(-c2nc3cc(CN4CC[C@@H](C(=O)O)C4)cc(C#N)c3o2)c1C (stereo partly drawn) [Compound 65, (3R)-1-((7-cyano-2-(2,2'-dimethyl-3'-(4-((((S)-5-oxopyrrolidin-2-yl)methyl)amino)-4,5,6,7-tetrahydropyrazolo[1,5-a]pyridine-2-carboxamido)-[1,1'-biphenyl]-3-yl)benzo[d]oxazol-5-yl)methyl)pyrrolidine-3-carboxylic acid]	< 10 nM
OCCNC1CCCn2nc(-c3cccc(-c4cccc(Nc5nccc6cc(CN7CC[C@@H](O)C7)cnc56)c4Cl)c3Cl)cc21 (stereo partly drawn) [Compound 180, (3R)-1-((8-((2,2'-dichloro-3'-(4-((2-hydroxyethyl)amino)-4,5,6,7-tetrahydropyrazolo[1,5-a]pyridin-2-yl)-[1,1'-biphenyl]-3-yl)amino)-1,7-naphthyridin-3-yl)methyl)pyrrolidin-3-ol]	< 10 nM
COc1cc(-c2cccc(-c3cccc(NC(=O)c4cc5n(n4)CCC[C@@H]5NCC(=O)O)c3Cl)c2Cl)cc(F)c1CNC[C@@H]1CCC(=O)N1 [Compound 249, 2-(((S)-2-((2,2'-dichloro-3"-fluoro-5"-methoxy-4"-(((((S)-5-oxopyrrolidin-2-yl)methyl)amino)methyl)-[1,1':3',1"-terphenyl]-3-yl)carbamoyl)-4,5,6,7-tetrahydropyrazolo[1,5-a]pyridin-4-yl)amino)acetic acid]	10 to 100 nM
Cc1c(Nc2nccc3cc(CN4CC[C@@H](O)C4)cnc23)cccc1-c1cccc(-c2cc3n(n2)CCCC3NCC(=O)O)c1C (stereo partly drawn) [Compound 179, 2-((2-(3'-((3-(((R)-3-hydroxypyrrolidin-1-yl)methyl)-1,7-naphthyridin-8-yl)amino)-2,2'-dimethyl-[1,1'-biphenyl]-3-yl)-4,5,6,7-tetrahydropyrazolo[1,5-a]pyridin-4-yl)amino)acetic acid]	< 10 nM
Cc1c(NC(=O)c2cc3n(n2)CCCC3NCCO)cccc1-c1cccc(NC(=O)c2nc3c(s2)CN(C)CC3)c1C (stereo not drawn) [Compound 147, N-(3'-(4-((2-hydroxyethyl)amino)-4,5,6,7-tetrahydropyrazolo[1,5-a]pyridine-2-carboxamido)-2,2'-dimethyl-[1,1'-biphenyl]-3-yl)-5-methyl-4,5,6,7-tetrahydrothiazolo[5,4-c]pyridine-2-carboxamide]	< 10 nM
O=C(Nc1cccc(-c2cccc(Nc3nc(C(F)(F)F)nc4cccnc34)c2Cl)c1Cl)c1cc2n(n1)CCC[C@@H]2N1CCC(C(=O)O)CC1 [Compound 273, (S)-1-(2-((2,2'-dichloro-3'-((2-(trifluoromethyl)pyrido[3,2-d]pyrimidin-4-yl)amino)-[1,1'-biphenyl]-3-yl)carbamoyl)-4,5,6,7-tetrahydropyrazolo[1,5-a]pyridin-4-yl)piperidine-4-carboxylic acid]	10 to 100 nM
Cn1c(C(=O)Nc2cccc(-c3cccc(NC(=O)c4cc5n(n4)CCC[C@H]5N4CC[C@@H](C(=O)O)C4)c3Cl)c2Cl)nc2c1CCN(CCC13CCC(C(=O)O)(CC1)C3)C2 [Compound 308, (R)-1-((R)-2-((3'-(5-(2-(4-carboxybicyclo[2.2.1]heptan-1-yl)ethyl)-1-methyl-4,5,6,7-tetrahydro-1H-imidazo[4,5-c]pyridine-2-carboxamido)-2,2'-dichloro-[1,1'-biphenyl]-3-yl)carbamoyl)-4,5,6,7-tetrahydropyrazolo[1,5-a]pyridin-4-yl)pyrrolidine-3-carboxylic acid]	< 10 nM
Cn1c(C(=O)Nc2cccc(-c3cccc(NC(=O)c4cc5n(n4)CCCC5N4CCC(C(=O)O)CC4)c3Cl)c2Cl)nc2c1CCN(CCC13CCC(C(=O)O)(CC1)C3)C2 (stereo not drawn) [Compound 59, 1-(2-((3'-(5-(2-(4-carboxybicyclo[2.2.1]heptan-1-yl)ethyl)-1-methyl-4,5,6,7-tetrahydro-1H-imidazo[4,5-c]pyridine-2-carboxamido)-2,2'-dichloro-[1,1'-biphenyl]-3-yl)carbamoyl)-4,5,6,7-tetrahydropyrazolo[1,5-a]pyridin-4-yl)piperidine-4-carboxylic acid]	< 10 nM
COc1cc(C(=O)Nc2cccc(-c3cccc(NC(=O)c4cc5n(n4)CCCC5N4CC[C@@H](C(=O)O)C4)c3Cl)c2Cl)cc(F)c1CN1CC[C@@H](C(=O)O)C1 (stereo partly drawn) [Compound 197, (3R)-1-(4-((3'-(4-((R)-3-carboxypyrrolidin-1-yl)-4,5,6,7-tetrahydropyrazolo[1,5-a]pyridine-2-carboxamido)-2,2'-dichloro-[1,1'-biphenyl]-3-yl)carbamoyl)-2-fluoro-6-methoxybenzyl)pyrrolidine-3-carboxylic acid]	10 to 100 nM
Cc1c(NC(=O)c2cc3n(n2)CCC[C@H]3N2CCC(C(=O)O)CC2)cccc1-c1cccc(Nc2nc(C(F)F)nc3cc(CN4CC[C@@H](O)C4)cnc23)c1C [Compound 268, 1-((R)-2-((3'-((2-(difluoromethyl)-7-(((R)-3-hydroxypyrrolidin-1-yl)methyl)pyrido[3,2-d]pyrimidin-4-yl)amino)-2,2'-dimethyl-[1,1'-biphenyl]-3-yl)carbamoyl)-4,5,6,7-tetrahydropyrazolo[1,5-a]pyridin-4-yl)piperidine-4-carboxylic acid]	10 to 100 nM
COc1cc(-c2cccc(-c3cccc(NC(=O)c4cc5n(n4)CCC[C@@H]5NCC(=O)O)c3Cl)c2Cl)cc(F)c1CN1CC[C@@H](O)C1 [Compound 247, 2-(((S)-2-((2,2'-dichloro-3"-fluoro-4"-(((R)-3-hydroxypyrrolidin-1-yl)methyl)-5"-methoxy-[1,1':3',1"-terphenyl]-3-yl)carbamoyl)-4,5,6,7-tetrahydropyrazolo[1,5-a]pyridin-4-yl)amino)acetic acid]	< 10 nM

Further lines, results first:

IC50	SMILES
< 10 nM	O=C(Nc1cccc(-c2cccc(NC(=O)c3cc4n(n3)CCCC4O)c2Cl)c1Cl)c1ccc(CNCCO)cn1 (stereo not drawn) [Compound 81, N-(2,2'-dichloro-3'-(5-(((2-hydroxyethyl)amino)methyl)picolinamido)-[1,1'-biphenyl]-3-yl)-4-hydroxy-4,5,6,7-tetrahydropyrazolo[1,5-a]pyridine-2-carboxamide]
10 to 100 nM	O=C(Nc1cccc(-c2cccc(Nc3nccc4nccnc34)c2Cl)c1Cl)c1cc2n(n1)CCC[C@@H]2N1CCC(C(=O)O)CC1 [Compound 257, (S)-1-(2-((2,2'-dichloro-3'-(pyrido[3,4-b]pyrazin-5-ylamino)-[1,1'-biphenyl]-3-yl)carbamoyl)-4,5,6,7-tetrahydropyrazolo[1,5-a]pyridin-4-yl)piperidine-4-carboxylic acid]
< 10 nM	O=C(Nc1cccc(-c2cccc(Nc3nccc4nccnc34)c2Cl)c1Cl)c1cc2n(n1)CCC[C@@H]2N1CC(C(=O)O)C1 [Compound 264, (S)-1-(2-((2,2'-dichloro-3'-(pyrido[3,4-b]pyrazin-5-ylamino)-[1,1'-biphenyl]-3-yl)carbamoyl)-4,5,6,7-tetrahydropyrazolo[1,5-a]pyridin-4-yl)azetidine-3-carboxylic acid]
< 10 nM	Cc1c(NC(=O)c2ccc(CNCCO)cn2)cccc1-c1cccc(NC(=O)c2cc3n(n2)CCCC3N2CC[C@@H](O)C2)c1C (stereo partly drawn) [Compound 73, N-(3'-(5-(((2-hydroxyethyl)amino)methyl)picolinamido)-2,2'-dimethyl-[1,1'-biphenyl]-3-yl)-4-((R)-3-hydroxypyrrolidin-1-yl)-4,5,6,7-tetrahydropyrazolo[1,5-a]pyridine-2-carboxamide]
100 to 1000 nM	CC(C)c1nc(Nc2cccc(-c3cccc(NC(=O)c4cc5n(n4)CCC[C@@H]5N4CCC(C(=O)O)CC4)c3Cl)c2Cl)c2ncccc2n1 [Compound 297, (S)-1-(2-((2,2'-dichloro-3'-((2-isopropylpyrido[3,2-d]pyrimidin-4-yl)amino)-[1,1'-biphenyl]-3-yl)carbamoyl)-4,5,6,7-tetrahydropyrazolo[1,5-a]pyridin-4-yl)piperidine-4-carboxylic acid]
< 10 nM	Cc1c(NC(=O)c2cc3n(n2)CCC[C@@H]3NCCO)cccc1-c1cccc(NC(=O)c2cc3n(n2)CCC[C@@H]3NCCO)c1C [Compound 253, (4S,4'S)-N,N'-(2,2'-dimethyl-[1,1'-biphenyl]-3,3'-diyl)bis(4-((2-hydroxyethyl)amino)-4,5,6,7-tetrahydropyrazolo[1,5-a]pyridine-2-carboxamide)]
10 to 100 nM	Cc1nc(Nc2cccc(-c3cccc(NC(=O)c4cc5n(n4)CCC[C@@H]5N4CCC(C(=O)O)CC4)c3Cl)c2Cl)c2ncccc2n1 [Compound 254, (S)-1-(2-((2,2'-dichloro-3'-((2-methylpyrido[3,2-d]pyrimidin-4-yl)amino)-[1,1'-biphenyl]-3-yl)carbamoyl)-4,5,6,7-tetrahydropyrazolo[1,5-a]pyridin-4-yl)piperidine-4-carboxylic acid]
< 10 nM	CC(=O)NCCN[C@H]1CCCn2nc(C(=O)Nc3cccc(-c4cccc(NC(=O)c5ccc(CNCCO)cn5)c4Cl)c3Cl)cc21 [Compound 241, (S)-4-((2-acetamidoethyl)amino)-N-(2,2'-dichloro-3'-(5-(((2-hydroxyethyl)amino)methyl)picolinamido)-[1,1'-biphenyl]-3-yl)-4,5,6,7-tetrahydropyrazolo[1,5-a]pyridine-2-carboxamide]
< 10 nM	Cc1c(NC(=O)c2ccc(CN3CC[C@@H](O)C3)cn2)cccc1-c1cccc(NC(=O)c2cc3n(n2)CCC[C@@H]3N2CC(C(=O)O)C2)c1C [Compound 265, 1-((S)-2-((3'-(5-(((R)-3-hydroxypyrrolidin-1-yl)methyl)picolinamido)-2,2'-dimethyl-[1,1'-biphenyl]-3-yl)carbamoyl)-4,5,6,7-tetrahydropyrazolo[1,5-a]pyridin-4-yl)azetidine-3-carboxylic acid]
